According to patent US7151168B2, “Ecdysone receptors and methods for their use” (Pioneer Hi-Bred International, Inc., priority 1998, dated 2006):
Several values for one entry are separate records, joined by “and”; a condition that tells them apart may be missing. Equal values may be shown once.

Assays:
Assay type in all cases: cell-based, Ostrinia nubilalis
[1] = system: chimeric Ecdysone receptor: VP16 activation domain, Gal4 DNA binding domain, ligand-binding domain of the Ecdysone receptor (PHP10513); assay: Stable transactivation assay, GAL4-responsive luciferase reporter PHP1654, leaf punches of T0 maize plants, PHP10513; conditions: 10 μM RH5992 in H2O, 16 hours, individual T0 plant, 20 μl of 200 μl extract
Description: (§1) To further examine the effect of the Ecdysone receptors on promoter-driven expression, a stable transactivation assay was performed using a chimeric Ecdysone receptor. DNA constructs were generated for the expression of both effector and reporter DNA sequences.
(§2) A reporter plasmid, designated PHP1654, was constructed in the pSP72 vector and contained 5 GAL4 responsive elements, a minimal CaMV-59 constitutive promoter, the Omega' leader sequence, Adh intron 1, the coding sequence for firefly Luciferase, and the PinII terminator sequences.
The plasmid designated PHP10513 also contains the Nopaline synthase (NOS) promoter, the Omegá leader sequence, Adh1 intron, 355 promoter, PAT gene, and the potato protease inhibitor II (PinII) termination sequences cloned into a pUC vector. However, the fragment encoding the chimeric receptor immediately downstream of the intron, comprises a fusion between the VP16 activation domain, the Gal4 DNA binding domain, and the ligand-binding domain of the Ecdysone receptor.
Immature embryos approximately 1.5 to 2.0 mm long from the Hi-II genotype (Armstrong and Phillips (1988) Crop Sci. 28:363–369) were bombarded with the PHP1654 reporter plasmid and either PHP10513 or PHP10512. As noted above, a selectable marker gene, PAT, was contained on PHP10513 and PHP10512. The PAT gene confers resistance to the herbicide Bialophos. (Wohlleben et al. (1988) Gene 70:25–37.)
Embryos were bombarded using the protocols described in Tomes et al. (1994) Plant Cell, Tissue, and Organ culture, Fundamental Methods 197–213. Specifically, the Hi-II immature embryos were bombarded and cultured on selection medium as described by Songstad et al. 1993 Agronomy Abstracts 183. Plant regeneration from transgenic calli was performed according to the protocol of Armstrong and Phillips (1988) Crop Sci 28:363–369, except that bialaphos (3 mg/l) was added to each of the regeneration media. Plants were established in the greenhouse.
The transactivation of the luciferase reporter sequence by a chimeric Ecdysone receptor was assayed using standard protocols. […]

[2] = system: C1::LexA::ecdysone fusion protein (plasmid PHP10956; ligand-binding domain of the Ecdysone receptor)
Excerpt: (§3) To examine the effect of the Ecdysone and USP receptors on promoter-driven expression, a transient transactivation assay was developed using a cell suspension culture derived from maize embryos. (See also, U.S. Pat. No. 5,886,244.) A reporter plasmid, designated PHP11545, was constructed in the pSP72 vector and contained 8 LexA operators, a minimal fragment of the CaMV-59 constitutive promoter, the Omega leader sequence, Adh intron 1, the coding sequence for firefly luciferase, and the PinII terminator sequences.
(§4) Two DNA constructs encoding effector proteins were generated. A chimeric Ecdysone receptor construct designated PHP10956 was generated. PHP10956 contains the Nopaline synthase (NOS) promoter, the Omega leader sequence, Adh1 intron, and the potato protease inhibitor II (PinII) termination sequences cloned into a pUC vector. A fragment encoding a fusion between the maize C1 transactivation domain, the LexA DNA binding domain, and the ligand-binding domain of the Ecdysone receptor was cloned downstream of the intron.
(§5) These constructs were introduced into embryogenic suspension cells by microprojectile bombardment as described by Unger et al. (1993) The Plant Cell 5:831–841. Plasmid DNA encoding effector and reporter sequences was mixed with 50 μl (15 mg/ml) of 1.0 μm tungsten microprojectiles. DNA was precipitated by addition of 50 μl 2.5 M CaCl2 and 20 μl 0.1M spermidine. Microprojectiles and precipitated DNA were centrifuged to a pellet and the supernatant was removed. The pellet was washed by sonication in the presence of 250 μl absolute ethanol, centrifuged and ethanol removed. Sixty μl of fresh absolute ethanol was added and this mixture sonicated to disperse the pellet. Ten μl aliquots of this microprojectile-DNA mixture were placed on each macrocarrier and bombarded into maize suspension cells using a helium-driven microprojectile gun, PDS-1000 (1100 psi rupture disk pressure). […]

[3] = system: chimeric Ecdysone receptor: maize C1 transactivation domain, Gal4 DNA binding domain, ligand-binding domain of the Ecdysone receptor (PHP10512); assay: Stable transactivation assay, GAL4-responsive luciferase reporter PHP1654, leaf punches of T0 maize plants, PHP10512; conditions: 10 μM RH5992 in H2O, 16 hours; plasmid PHP10512, event 78; individual T0 plant; 20 μl of 200 μl extract
Description: as §1, §2
Two DNA constructions encoding chimeric Ecdysone receptor proteins were generated. The chimeric Ecdysone receptor construct designated PHP10512 contains the Nopaline synthase (NOS) promoter, the Omegá leader sequence, Adh1 intron, 355 promoter, PAT gene and the potato protease inhibitor II (PinII) termination sequences cloned into a pUC vector. A fragment encoding a fusion between the maize C1 transactivation domain, the Gal4 DNA binding domain, and the ligand-binding domain of the Ecdysone receptor was cloned downstream of the intron.
Immature embryos approximately 1.5 to 2.0 mm long from the Hi-II genotype (Armstrong and Phillips (1988) Crop Sci. 28:363–369) were bombarded with the PHP1654 reporter plasmid and either PHP10513 or PHP10512. As noted above, a selectable marker gene, PAT, was contained on PHP10513 and PHP10512. […]

[4] = system: USP receptor (plasmid PHP10967) and C1::LexA::ecdysone fusion protein (plasmid PHP10956); assay: Transient transactivation assay, luciferase reporter PHP11545, maize embryogenic suspension cells, chimeric EcR plus USP (NosCLO/NosUSP)
Excerpt: as §3, §4
A DNA construction containing the USP coding sequences was generated and designated PHP10967. PHP10967 contains the Nos promoter, the Omega leader sequence, Adh1 intron, and the PinII terminator sequences cloned into the pUC vector. The nucleic acid sequence encoding the USP coding region was inserted downstream of the intron.
as §5, with “pellet.” for “pellet. Ten μl aliquots of this microprojectile-DNA mixture were placed on each macrocarrier and bombarded into maize suspension cells using a helium-driven microprojectile gun, PDS-1000 (1100 psi rupture disk pressure).”

Compound: CCc1ccc(C(=O)NN(C(=O)c2cc(C)cc(C)c2)C(C)(C)C)cc1 [RH5992, 3,5-dimethylbenzoic acid 1—1 (1,1-dimethylethyl)-2(4-ethylbenzoyl)hydrazide]
- RH5992 treated (Light Units), luciferase activity ([1]; plasmid PH10513, event 30): 38093 Light Units and 26394 Light Units and 24632 Light Units and 33636 Light Units and 28213 Light Units and 22137 Light Units and 105341 Light Units and 44639 Light Units and 49279 Light Units and 83241 Light Units and 61320 Light Units and 130618 Light Units and 95166 Light Units and 35641 Light Units and 37955 Light Units and 38507 Light Units and 37855 Light Units and 42346 Light Units
- RH5992 treated (Light Units), luciferase activity ([1]; plasmid PHP10513, event 44): 605147 Light Units and 528950 Light Units and 303021 Light Units and 573842 Light Units and 417072 Light Units and 511220 Light Units and 290095 Light Units
- RH5992 treated (Light Units), luciferase activity ([1]; plasmid PHP10513, event 117): 90037 Light Units and 40005 Light Units and 149594 Light Units and 75379 Light Units and 49243 Light Units and 114913 Light Units and 57607 Light Units and 46075 Light Units
- Average Light Units (luciferase expression) ([2]; 10 μM RH5992, NosCLO only, effector dose 0.02 μg, 16 to 18 hours at 26° C., maize suspension cells): 153613 Light Units
- Fold Induction (luciferase) ([2]; 10 μM RH5992 vs no ligand, NosCLO only, 0.02 μg): 8.4x
- Transactivation of the LexA responsive luciferase reporter gene (in words) ([2]; in the presence of the RH5992 ligand, only C1::LexA::ecdysone fusion protein (PHP10956), no USP): resulted in the transactivation of the LexA responsive luciferase reporter gene
- RH5992 treated (Light Units), luciferase activity [3]: 3771 Light Units and 1819 Light Units and 7742 Light Units and 1027 Light Units and 9742 Light Units and 2486 Light Units and 8494 Light Units and 3988 Light Units and 9265 Light Units and 6198 Light Units and 6293 Light Units and 1045 Light Units and 8354 Light Units and 4720 Light Units
- Average Light Units (luciferase expression) ([4]; 10 μM RH5992, NosCLO/NosUSP, 0.02 μg each, 16 to 18 hours at 26° C., maize suspension cells): 201808 Light Units
- Fold Induction (luciferase) ([4]; 10 μM RH5992 vs no ligand, NosCLO/NosUSP, 0.02 μg each): 53x
- Transactivation of the LexA responsive luciferase reporter (PHP11545) ([4]; in the presence of the RH5992 ligand, USP (PHP10967) plus C1::LexA::ecdysone fusion (PHP10956)): 53 fold
